# pEC50, pKi: −log10 of the molar value. Read-outs that look alike come from different tables or passages of the source.
# Tests used:
# motilin receptor = motilin receptor (Homo sapiens, UniProt O43193); test: Selectivity for the ghrelin receptor versus the motilin receptor; assay type: binding
# Excerpt: The level of agonist activity and selectivity for representative compounds of the invention are shown below in Table 4.
# [1] = biological target: T1, human growth hormone secretagogue receptor (hGHS-R1a) (Homo sapiens, UniProt Q92847); test: Competitive radioligand binding assay (ghrelin receptor), [125I]-ghrelin displacement on GHS-R/HEK 293 membranes; details: read-out: Ki
# T1 construct: purchased PerkinElmer BioSignal #RBHGHSM, lot#1887; host or cells: HEK-293, stably transfected (membranes)
# [2] = biological target: human ghrelin receptor (hGHS-R1a) (Homo sapiens, UniProt Q92847); test: Aequorin functional assay (ghrelin receptor), CHO-K1 cells co-expressing Gα16 and aequorin; assay type: cell-based; details: functional (agonist) activity, standard method; TFA salts unless otherwise noted
# Excerpt: Coelenterazine (Molecular Probes, Leiden, The Netherlands). […] Compound Handling
# • 1. […] Key Aspects of Method • 1. […] Results
# [3] = tested on: gastric emptying in fasted rats; test: Gastric emptying in fasted rats (phenol red methylcellulose meal); assay type: in vivo, rat
# Protocol: To examine the effects of compounds of the invention in a model for gastroparesis, compounds were evaluated for possible effects on gastric emptying in fasted rats.
# GHRP-6 and test samples were dissolved in vehicle of 9% HPBCD/0.9% NaCl. Immediately following oral administration of methylcellulose (2%) containing phenol red (0.05%) (2 mL/rat), test substances or vehicle (9% HPBCD/0.9% NaCl) were each administered intravenously (i.v.) at a dosing volume of 5 mL/kg.
# Male Wistar rats were provided by LASCO (A Charles River Licensee Corporation, Taiwan). Space allocation for 6 animals was 45×23×15 cm. Animals were housed in APEC® cages and maintained in a controlled temperature (22° C.-24° C.) and humidity (60%-80%) environment with 12 h light, 12 h dark cycles for at least one week in the laboratory prior to being used. Free access to standard lab chow for rats (Lab Diet, Rodent Diet, PMI Nutrition International, USA) and tap water was granted. All aspects of this work including housing, experimentation and disposal of animals were performed in general accordance with the Guide for the Care and Use of Laboratory Animals (National Academy Press, Washington, D.C., 1996).
# Test substances were each administered intravenously to a group of 5 O/N-fasted Wistar derived male rats weighing 200±20 g immediately after methylcellulose (2%) containing phenol red (0.05%) was administered orally at 2 mL/animal. […] Following protein precipitation by 20% trichloroacetic acid (0.5 mL) and re-alkalization of the supernatant with 0.1 N NaOH, total phenol red remaining in the stomach was determined by a colorimetric method at 560 nm. A 30 percent or more (≧30%) increase in gastric emptying, detected as the decrease in phenol red concentration in the stomach relative to the vehicle control group, is considered significant.
# • 1. […] Total phenol red remaining in the stomach was quantified by a colorimetric method at 560 nm. • 5. A >30% increase in gastric emptying, detected based on the phenol red concentration in comparison to the control group, is considered significant. […]
# [4] = Pharmacokinetic analysis in rats (i.v., s.c., p.o.); assay type: in vivo; details: rat, typical dose 2 mg/kg
# Protocol: D. Pharmacokinetic Analysis of Representative Compounds of the Invention
# Typical Dose • 1. Intravenous (i.v.): 2 mg/kg • 2. Subcutaneous (s.c): 2 mg/kg
# Plasma Collection • 1. Same protocol for all dosing groups • 2.
# Whole blood samples were chilled and immediately processed by centrifugation to obtain plasma.
# Plasma samples were stored frozen (−70° C.) until analysis.
# morphine-treated rats = test: Model of opioid-delayed gastric emptying and gastrointestinal transit (morphine) in rats; assay type: in vivo, rat; details: 3 mg/kg s.c., FIG. 16A
# Excerpt: 7. The Effect of Compounds of the Invention on Gastric Emptying and Gastrointestinal Transit in a Model of Opioid-Delayed Gastric Emptying
# Opioid analgesics, such as morphine, are well known to delay gastrointestinal transit which is an important side-effect for this class of drugs. The clinical term for this syndrome is opioid bowel dysfunction (OBD). Importantly, patients recovering from abdominal surgery experience post-operative ileus that is further exacerbated by concomitant opioid therapy for post-surgical pain.
# • 1. […] Methods • 1. Rats (male, Sprague-Dawley, 250-300 g) are implanted with jugular vein catheters to accommodate dosing of test articles. • 2. Overnight-fasted rats are administered morphine (3 mg/kg s.c.). • 3. […] Radioactivity (^99mTc) in each tissue isolate is measured as a means of measuring the transit of the meal. Results
# [5] = binding activity at the human ghrelin receptor, [125I]-ghrelin competition, GHS-R/HEK 293 membranes
# [6] = binding activity, standard method, TFA salts unless otherwise noted
# [7] = binding activity at the human ghrelin receptor, [125I]-ghrelin displacement
# Sequence of human ghrelin receptor (hGHS-R1a) (Q92847 whole entry): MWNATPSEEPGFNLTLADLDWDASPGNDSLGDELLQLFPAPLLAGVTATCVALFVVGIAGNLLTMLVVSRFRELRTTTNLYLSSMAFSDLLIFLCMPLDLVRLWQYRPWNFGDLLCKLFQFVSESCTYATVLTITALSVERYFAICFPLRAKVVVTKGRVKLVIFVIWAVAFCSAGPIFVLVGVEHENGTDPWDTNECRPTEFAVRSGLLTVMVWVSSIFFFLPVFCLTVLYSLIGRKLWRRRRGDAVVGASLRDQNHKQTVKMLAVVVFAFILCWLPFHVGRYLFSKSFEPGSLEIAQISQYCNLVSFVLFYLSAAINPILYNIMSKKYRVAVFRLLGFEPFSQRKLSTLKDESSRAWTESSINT
# T1 sequence (Q92847 whole entry): as above
# Sequence of motilin receptor (O43193 whole entry): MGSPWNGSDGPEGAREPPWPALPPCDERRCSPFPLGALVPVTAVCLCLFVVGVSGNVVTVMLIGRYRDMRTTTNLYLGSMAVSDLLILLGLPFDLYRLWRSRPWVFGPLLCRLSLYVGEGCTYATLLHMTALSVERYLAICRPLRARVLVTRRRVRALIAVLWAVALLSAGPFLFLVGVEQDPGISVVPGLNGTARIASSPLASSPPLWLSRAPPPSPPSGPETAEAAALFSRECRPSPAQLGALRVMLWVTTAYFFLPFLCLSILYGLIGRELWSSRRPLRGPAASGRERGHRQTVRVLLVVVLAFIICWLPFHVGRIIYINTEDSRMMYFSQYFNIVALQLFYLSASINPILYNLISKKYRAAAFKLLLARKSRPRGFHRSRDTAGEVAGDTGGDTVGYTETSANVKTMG
SMILES,Selectivity (motilin receptor),"pKi [1, 5]","pKi [1, 6]",pEC50 [2],also measured
CC1COc2ccccc2CCCNC(=O)C(Cc2ccc(F)cc2)NC(=O)C(C)N(C)C(=O)C(C2CC2)N1 (stereo not drawn) [compound 394],1700/1,–,–,–,–
CCCC1NCCOc2ccccc2C=CCNC(=O)C(Cc2ccccc2)NC(=O)C(C)N(C)C1=O (stereo not drawn) [compound 39],3400/1,–,–,–,–
CCC(C)C1NCCOc2ccc(F)cc2CCCNC(=O)C(Cc2cccc(Cl)c2)NC(=O)C2(CCCC2)NC1=O (stereo not drawn) [compound 382],74/1,–,–,–,–
C[C@@H]1C(=O)N[C@H](Cc2ccccc2)C(=O)NCCCc2ccccc2OCCN[C@@H](C2CC2)C(=O)N1C [compound 17],2500/1,8.00 to 10.00,8.00 to 10.00,7.00 to 9.00,–
CCCCC1NCCOc2ccccc2CCCNC(=O)C(Cc2ccccc2)NC(=O)CN(C)C1=O (stereo not drawn) [Compound 1],142/1,–,–,–,–
CCC(C)C1NCCOc2ccccc2CCCNC(=O)C(Cc2ccc(Cl)cc2)NC(=O)C(C)N(C)C1=O (stereo not drawn) [compound 25],–,8.00 to 10.00,–,–,"gastric emptying ([3]; fasted rats, 30 μg/kg): demonstrated gastric emptying; increase in gastric emptying relative to the vehicle control group ([3]; fasted rats, 100 μg/kg i.v.): 39%; Clearance [4]: 67 mL/min/kg; Elimination (t1/2, min) [4]: 31 min"
CCC(C)C1NCCOc2ccccc2C2CC2CNC(=O)C(Cc2cccc(Cl)c2)NC(=O)C2(CCCC2)NC1=O (stereo not drawn) [compound 388],400/1,–,–,–,–
CC1C(=O)NC(Cc2ccc(F)cc2)C(=O)NCCCc2cc(NS(C)(=O)=O)ccc2OCCNC(C2CC2)C(=O)N1C (stereo not drawn) [compound 374],250/1,–,–,–,–
CCC(C)C1NCCCCCCCCNC(=O)C(Cc2cccc(Cl)c2)NC(=O)C2(CCCC2)NC1=O (stereo not drawn) [compound 363],35/1,–,–,–,–
CCCC1NCCOc2ccccc2CCCNC(=O)C(Cc2ccc(O)cc2)NC(=O)CN(C)C1=O (stereo not drawn) [compound 7],>100/1,–,–,–,–
"CC1C(=O)NC(Cc2ccc(F)cc2)C(=O)NCC2CC2c2ccccc2OCCNC(C2CC2)C(=O)N1C (single isomer, unassigned) [389a]",450/1,–,7.00 to 8.00,6.00 to 7.00,–
CCC(C)C1NCCOc2ccccc2C=CCNC(=O)C(Cc2ccccc2)NC(=O)C(C)N(C)C1=O (stereo not drawn) [compound 40],>3300/1,–,–,–,–
CCC(C)C1NCCOc2ccccc2CCCNC(=O)C(Cc2ccccc2)NC(=O)C(C)N(CC)C1=O (stereo not drawn) [compound 43],3700/1,7.00 to 8.00,7.00 to 8.00,–,–
CC1C(=O)NC(Cc2ccc(Cl)cc2Cl)C(=O)NCCCc2ccccc2OCCNC(C2CC2)C(=O)N1C (stereo not drawn) [compound 314],>5500/1,–,8.00 to 10.00,7.00 to 9.00,"pKi [1, 7]: 8.00 to 10.00"
CCC(C)C1NCCOc2ccccc2CCCNC(=O)C(CC(C)C)NC(=O)C(C)N(C)C1=O (stereo not drawn) [compound 176],105/1,–,–,–,–
CCC(C)C1NCCOc2ccc(C(=O)O)cc2CCCNC(=O)C(Cc2ccccc2)NC(=O)C(C)N(C)C1=O (stereo not drawn) [compound 197],100/1,–,–,–,–
CC[C@H](C)[C@@H]1NCCOc2ccccc2CCCNC(=O)[C@@H](Cc2ccc(F)cc2)NC(=O)[C@@H](C)N(C)C1=O [compound 26],>7700/1,8.00 to 10.00,8.00 to 10.00,7.00 to 9.00,–

SMILES,Selectivity (motilin receptor),"pKi [1, 5]","pKi [1, 6]",pEC50 [2],also measured
CC(C)C1NCCOc2ccccc2C=CCNC(=O)C(Cc2ccccc2)NC(=O)C(C)N(C)C1=O (stereo not drawn) [compound 19],>1700/1,–,6.00 to 7.00,–,–
CC(C)CC1NCCOc2ccccc2C=CCNC(=O)C(Cc2cccc(Cl)c2)NC(=O)C2(CCCC2)NC1=O (stereo not drawn) [compound 21],1078/1,8.00 to 10.00,8.00 to 10.00,7.00 to 9.00,–
CCC(C)C1NCCOc2cccnc2CCCNC(=O)C(Cc2ccccc2)NC(=O)C(C)N(C)C1=O (stereo not drawn) [compound 177],>100/1,–,–,–,–
CC(C)C[C@@H]1NCCOc2ccccc2CCCNC(=O)[C@@H](Cc2ccccc2)NC(=O)C2(CCCC2)NC1=O [compound 97],–,6.00 to 7.00,7.00 to 8.00,6.00 to 7.00,–
"CN1CC[C@]23c4c5ccc(O)c4O[C@H]2[C@@H](O)C=C[C@H]3[C@H]1C5 [Morphine, morphine]",–,–,–,–,gastric emptying and intestinal transit (morphine-treated rats): significantly delayed gastric emptying and intestinal transit
CC(C)C[C@@H]1NCCOc2ccccc2C=CCNC(=O)[C@H](Cc2ccccc2Cl)NC(=O)C2(CCCC2)NC1=O (stereo in doubt) [compound 20],1044/1,8.00 to 10.00,8.00 to 10.00,7.00 to 9.00,–
C[C@@H]1C(=O)N[C@H](Cc2ccc(O)c(C(C)(C)C)c2)C(=O)NCCCc2ccccc2OCCN[C@@H](C2CC2)C(=O)N1C [compound 311],21/1,–,7.00 to 8.00,–,–
"CCN(CC)CCNC(=O)c1cc(Cl)c(N)cc1OC [Metoclopramide, reference compound]",–,–,–,–,"gastric emptying of a solid meal in naïve rat ([3]; i.v. immediately after meal, FIG. 14): significant gastric emptying"
CC[C@H](C)[C@@H]1NCCOc2ccccc2CCCNC(=O)[C@@H](Cc2cccc(Cl)c2)NC(=O)[C@@H](C)N(C)C1=O [compound 24],3039/1,8.00 to 10.00,8.00 to 10.00,–,–
CCCC1NCCOc2ccccc2CCCNC(=O)C(Cc2ccccc2)NC(=O)C(C)N(C)C1=O (stereo not drawn) [Compound 4],3012/1,7.00 to 8.00,7.00 to 8.00,7.00 to 9.00,–
CC[C@H](C)[C@@H]1NCCOc2ccccc2CCCNC(=O)[C@@H](Cc2ccc3ccccc3c2)NC(=O)[C@@H](C)N(C)C1=O [compound 31],4900/1,8.00 to 10.00,8.00 to 10.00,7.00 to 9.00,–
CC(C)C[C@@H]1NCCOc2ccccc2C=CCNC(=O)[C@H](Cc2ccc(Cl)cc2)NC(=O)C2(CCCC2)NC1=O (stereo in doubt) [compound 153],–,7.00 to 8.00,7.00 to 8.00,7.00 to 9.00,–
CC1(C)NC(=O)C2(CCCC2)NCCOc2ccccc2C=CCNC(=O)[C@H](Cc2cccc(Cl)c2)NC1=O (stereo in doubt) [compound 334],–,–,7.00 to 8.00,7.00 to 9.00,"pKi ([1]; Table 3C (compounds 18, 334-397), human ghrelin receptor): 7.00 to 8.00"
"CC1C(=O)NC(Cc2ccc(F)cc2)C(=O)NCCCc2ncccc2OCCNC(C2CC2)C(=O)N1C (single isomer, unassigned) [306a]",714/1,–,7.00 to 8.00,7.00 to 9.00,"pKi [1, 7]: 7.00 to 8.00"
CCC(C)C1NCCOc2ccccc2CCCNC(=O)C(Cc2ccc(OC)cc2)NC(=O)C(C)N(C)C1=O (stereo not drawn) [compound 27],>7100/1,8.00 to 10.00,8.00 to 10.00,7.00 to 9.00,–
CCC(C)C1NCCOc2ccccc2CCCNC(=O)C(Cc2cccs2)NC(=O)C(C)N(C)C1=O (stereo not drawn) [compound 34],>1000/1,–,–,–,–
